Source: patent publication US10214531B2 (Institute for Drug Discovery, LLC, priority 2013, dated 2019)
Structures can show the parent of a compound that is named as a salt.

Biological target: recombinant human AMCase (Homo sapiens, UniProt Q9BZP6)
Test: Human AMCase Activity Assay
Assay type: biochemical
Conditions: recombinant hAMCase, 4-methylumbelliferyl chitobioside substrate, citrate buffer pH 5.2, 37° C., 60 minutes; read-out: Activity (IC50 value key)
Outline: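 Recombinant human enzyme with fluorogenic 4-methylumbelliferyl β-D-N,N′-diacetylchitobioside substrate in citrate buffer, pH 5.2, 60 min at 37 °C in the dark with shaking. Read-out is 4MU fluorescence at 460 nm.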

Sequence of recombinant human AMCase (Q9BZP6 22-476): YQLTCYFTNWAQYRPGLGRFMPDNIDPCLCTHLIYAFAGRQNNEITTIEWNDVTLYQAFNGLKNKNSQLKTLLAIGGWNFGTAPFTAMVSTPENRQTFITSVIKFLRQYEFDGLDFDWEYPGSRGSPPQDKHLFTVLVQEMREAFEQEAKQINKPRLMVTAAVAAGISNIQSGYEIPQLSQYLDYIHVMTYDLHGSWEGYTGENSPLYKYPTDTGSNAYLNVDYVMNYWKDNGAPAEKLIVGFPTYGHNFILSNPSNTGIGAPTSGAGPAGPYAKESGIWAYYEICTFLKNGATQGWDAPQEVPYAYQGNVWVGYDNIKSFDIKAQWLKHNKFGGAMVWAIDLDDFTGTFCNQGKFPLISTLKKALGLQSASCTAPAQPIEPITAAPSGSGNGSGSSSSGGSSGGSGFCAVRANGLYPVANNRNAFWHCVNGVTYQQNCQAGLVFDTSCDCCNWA

| IC50 [µM] | Compound |
| --- | --- |
| < 0.1 | Nc1nc(N2CCC(N(CCc3ccc(Cl)cc3)Cc3cccc(Cl)c3)CC2)n[nH]1 [Example 110, 1-(3-amino-1H-1,2,4-triazol-5-yl)-N-(3-chlorobenzyl)-N-(4-chlorophenethyl) piperidin-4-amine dihydrochloride] |
| < 0.1 | Nc1n[nH]c(N2CCC(N(CCc3ccc(Cl)cc3)Cc3ccc(-c4ccccc4)cc3)CC2)n1 [Example 111, N-([1,1′-biphenyl]-4-ylmethyl)-1-(3-amino-1H-1,2,4-triazol-5-yl)-N-(4-chlorophenethyl) piperidin-4-amine] |
| < 0.1 | Nc1n[nH]c(N2CCC(N(CCc3ccc(Cl)cc3)Cc3ccc4ccccc4c3)CC2)n1 [Example 112, 1-(3-amino-1H-1,2,4-triazol-5-yl)-N-(4-chlorophenethyl)-N-(naphthalen-2-ylmethyl) piperidin-4-amine] |
| < 0.1 | Nc1n[nH]c(N2CCC(N(CCc3ccc(Cl)cc3)Cc3ccccc3C(F)(F)F)CC2)n1 [Example 113, 1-(3-amino-1H-1,2,4-triazol-5-yl)-N-(4-chlorophenethyl)-N-(2-(trifluoromethyl)benzyl)piperidin-4-amine] |
| < 0.1 | Nc1n[nH]c(N2CCC(N(CCc3ccc(Cl)cc3)Cc3ccccc3-c3ccccc3)CC2)n1 [Example 114, N-([1,1′-biphenyl]-2-ylmethyl)-1-(3-amino-1H-1,2,4-triazol-5-yl)-N-(4-chlorophenethyl) piperidin-4-amine] |
| < 0.1 | Nc1n[nH]c(N2CCC(N(CCc3ccc(Cl)cc3)Cc3ccc(-c4ccn[nH]4)cc3)CC2)n1 [Example 115, N-(4-(1H-pyrazol-5-yl)benzyl)-1-(3-amino-1H-1,2,4-triazol-5-yl)-N-(4-chlorophenethyl) piperidin-4-amine dihydrochloride] |
| 0.1 to 1 | Nc1n[nH]c(N2CCC(N(CCc3ccc(Cl)cc3)Cc3cnc4ccccc4n3)CC2)n1 [Example 116, 1-(3-amino-1H-1,2,4-triazol-5-yl)-N-(4-chlorophenethyl)-N-(quinoxalin-2-ylmethyl) piperidin-4-amine dihydrochloride] |
| < 0.1 | C[C@H](c1ccccc1)N(CCc1ccc(Cl)cc1)C1CCN(c2nc(N)n[nH]2)CC1 [Example 118, (R)-1-(3-amino-1H-1,2,4-triazol-5-yl)-N-(4-chlorophenethyl)-N-(1-phenylethyl)piperidin-4-amine] |
| < 0.1 | Nc1n[nH]c(N2CCC(N(CCc3ccc(Cl)cc3)Cc3ccncc3F)CC2)n1 [Example 119, 1-(3-amino-1H-1,2,4-triazol-5-yl)-N-(4-chlorophenethyl)-N-((3-fluoropyridin-4-yl)methyl)piperidin-4-amine] |
| < 0.1 | Nc1n[nH]c(N2CCC(N(CCc3ccc(Cl)cc3)Cc3ccc(F)cc3)CC2)n1 [Example 123, 1-(3-amino-1H-1,2,4-triazol-5-yl)-N-(4-chlorophenethyl)-N-(4-fluorobenzyl)piperidin-4-amine] |
| < 0.1 | Cc1ccccc1CN(CCc1ccc(Cl)cc1)C1CCN(c2nc(N)n[nH]2)CC1 [Example 125, 1-(3-amino-1H-1,2,4-triazol-5-yl)-N-(4-chlorophenethyl)-N-(2-methylbenzyl)piperidin-4-amine] |
| < 0.1 | Nc1n[nH]c(N2CCC(N(CCc3ccc(Cl)cc3)Cc3ccc(Cl)c(C(F)(F)F)c3)CC2)n1 [Example 126, 1-(3-amino-1H-1,2,4-triazol-5-yl)-N-(4-chloro-3-(trifluoromethyl)benzyl)-N-(4-chlorophenethyl)piperidin-4-amine] |
| < 0.1 | Nc1n[nH]c(N2CCC(N(CCc3ccc(Cl)cc3)Cc3ccccc3Br)CC2)n1 [Example 127, 1-(3-amino-1H-1,2,4-triazol-5-yl)-N-(2-bromobenzyl)-N-(4-chlorophenethyl)piperidin-4-amine] |
| < 0.1 | Nc1n[nH]c(N2CCC(N(CCc3ccc(Br)cc3)Cc3cccc4ccccc34)CC2)n1 [Example 129, 1-(3-amino-1H-1,2,4-triazol-5-yl)-N-(4-bromophenethyl)-N-(naphthalen-1-ylmethyl)piperidin-4-amine] |
| 0.1 to 1 | CN(C1CCN(c2nc(N)n[nH]2)CC1)C(CO)Cc1ccc(Cl)cc1 (stereo not drawn) [Example 130, 2-((1-(3-amino-1H-1,2,4-triazol-5-yl)piperidin-4-yl)(methyl)amino)-3-(4-chlorophenyl)propan-1-ol dihydrochloride] |
| 10 to 100 | CN(CCc1cccnc1)C1CCN(c2nc(N)n[nH]2)CC1 [Example 131, 1-(3-amino-1H-1,2,4-triazol-5-yl)-N-methyl-N-(2-(pyridin-3-yl)ethyl)piperidin-4-amine dihydrochloride] |
| < 0.1 | Nc1nc(N2CCC(N(CCc3ccc(Cl)cc3)Cc3ccc(Cl)cc3)CC2)n[nH]1 [Example 134, 1-(3-amino-1H-1,2,4-triazol-5-yl)-N-(4-chlorobenzyl)-N-(4-chlorophenethyl)piperidin-4-amine] |
| < 0.1 | Nc1n[nH]c(N2CCC(N(CCc3ccc(Cl)cc3)[C@H](CO)c3ccccc3)CC2)n1 [Example 135, (S)-2-((1-(3-amino-1H-1,2,4-triazol-5-yl)piperidin-4-yl)(4-chlorophenethyl)amino)-2-phenylethan-1-ol] |

| IC50 [µM] | Compound |
| --- | --- |
| > 100 | CN(Cc1nc2ccccc2[nH]1)C1CCN(c2nc(N)n[nH]2)CC1 [Example 136, N-((1H-benzo[d]imidazol-2-yl)methyl)-1-(3-amino-1H-1,2,4-triazol-5-yl)-N-methylpiperidin-4-aminetrihydrochloride] |
| < 0.1 | Nc1n[nH]c(N2CCC(N(CCc3ccc(Cl)cc3)Cc3ccccc3F)CC2)n1 [Example 137, 1-(3-amino-1H-1,2,4-triazol-5-yl)-N-(4-chlorophenethyl)-N-(2-fluorobenzyl)piperidin-4-amine dihydrochloride] |
| 1 to 10 | C[C@H](Cc1ccc(Cl)cc1)N(C)C1CCN(c2nc(N)n[nH]2)CC1 [Example 139, (R)-1-(3-amino-1H-1,2,4-triazol-5-yl)-N-(1-(4-chlorophenyl)propan-2-yl)-N-methylpiperidin-4-amine dihydrochloride] |
| 10 to 100 | CC(CN(C)C1CCN(c2nc(N)n[nH]2)CC1)c1ccc(Cl)cc1 (stereo not drawn) [Example 140, 1-(3-amino-1H-1,2,4-triazol-5-yl)-N-(2-(4-chlorophenyl)propyl)-N-methylpiperidin-4-amine dihydrochloride] |
| 0.1 to 1 | CC(Cc1ccc(Cl)cc1)N(C)C1CCN(c2nc(N)n[nH]2)CC1 (stereo not drawn) [Example 141, 1-(3-amino-1H-1,2,4-triazol-5-yl)-N-(1-(4-chlorophenyl)propan-2-yl)-N-methylpiperidin-4-amine dihydrochloride] |
| < 0.1 | N#Cc1ccc(CN(CCc2ccc(Cl)cc2)C2CCN(c3nc(N)n[nH]3)CC2)cc1 [Example 142, 4-(((1-(3-amino-1H-1,2,4-triazol-5-yl)piperidin-4-yl)(4-chlorophenethyl)amino)methyl)benzonitrile] |
| < 0.1 | Nc1n[nH]c(N2CCC(N(CCc3ccc(Cl)cc3)Cc3ccc(F)c4ccccc34)CC2)n1 [Example 144, 1-(3-amino-1H-1,2,4-triazol-5-yl)-N-(4-chlorophenethyl)-N-((4-fluoronaphthalen-1-yl)methyl)piperidin-4-amine] |
| < 0.1 | Nc1nc(N2CCC(N(CCc3ccc(Cl)cc3)Cc3ccc(F)cc3Cl)CC2)n[nH]1 [Example 145, 1-(3-amino-1H-1,2,4-triazol-5-yl)-N-(2-chloro-4-fluorobenzyl)-N-(4-chlorophenethyl)piperidin-4-amine] |
| < 0.1 | Nc1n[nH]c(N2CCC(N(CCc3ccc(Br)cc3)Cc3ccccc3)CC2)n1 [Example 146, 1-(3-amino-1H-1,2,4-triazol-5-yl)-N-benzyl-N-(4-bromophenethyl)piperidin-4-amine] |
| 10 to 100 | CC(CNC1CCN(c2nc(N)n[nH]2)CC1)c1ccc(Cl)cc1 (stereo not drawn) [Example 147, 1-(3-amino-1H-1,2,4-triazol-5-yl)-N-(2-(4-chlorophenyl)propyl)piperidin-4-aminedihydrochloride] |
| > 100 | CN(Cc1ccc(Cl)cc1)C1CCN(c2nc(N)n[nH]2)CC1 [Example 148, 1-(3-amino-1H-1,2,4-triazol-5-yl)-N-(4-chlorobenzyl)-N-methylpiperidin-4-amine dihydrochloride] |
| 1 to 10 | CN(CCc1ccc(Cl)cc1)C1CCN(c2nc(N)n[nH]2)CC1F (stereo not drawn) [Example 150, 1-(3-amino-1H-1,2,4-triazol-5-yl)-N-(4-chlorophenethyl)-3-fluoro-N-methylpiperidin-4-amine] |
| 1 to 10 | CC(Cc1ccc(Cl)cc1)NC1CCN(c2nc(N)n[nH]2)CC1 (stereo not drawn) [Example 151, 1-(3-amino-1H-1,2,4-triazol-5-yl)-N-(1-(4-chlorophenyl)propan-2-yl)piperidin-4-amine dihydrochloride] |
| < 0.1 | COc1ccc(CN(CCc2ccc(Cl)cc2)C2CCN(c3nc(N)n[nH]3)CC2)cc1 [Example 152, 1-(3-amino-1H-1,2,4-triazol-5-yl)-N-(4-chlorophenethyl)-N-(4-methoxybenzyl)piperidin-4-amine] |
| 0.1 to 1 | CN(C1CCN(c2nc(N)n[nH]2)CC1)[C@H](CO)Cc1ccc(Cl)cc1 [Example 153, (S)-2-((1-(3-amino-1H-1,2,4-triazol-5-yl)piperidin-4-yl)(methyl)amino)-3-(4-chlorophenyl)propan-1-ol] |
| 0.1 to 1 | CC1CN(c2nc(N)n[nH]2)CCC1N(C)CCc1ccc(Cl)cc1 (stereo not drawn) [Example 154, 1-(3-amino-1H-1,2,4-triazol-5-yl)-N-(4-chlorophenethyl)-N,3-dimethylpiperidin-4-amine dihydrochloride] |
| < 0.1 | Nc1nc(N2CCC(N(CCc3ccc(Cl)cc3)Cc3cccc(C(F)(F)F)c3)CC2)n[nH]1 [Example 156, 1-(3-amino-1H-1,2,4-triazol-5-yl)-N-(4-chlorophenethyl)-N-(3-(trifluoromethyl)benzyl)piperidin-4-amine] |
| 10 to 100 | CN(CCc1ccccn1)C1CCN(c2nc(N)n[nH]2)CC1 [Example 157, 1-(3-amino-1H-1,2,4-triazol-5-yl)-N-methyl-N-(2-(pyridin-2-yl)ethyl)piperidin-4-amine trihydrochloride] |
